Test results from BindingDB's records for doi:10.1021/acs.jmedchem.5b00570 (Academy of Sciences of The Czech Republic V.V.I., 2015).

What was measured:
[1] = biological target: Glutamate receptor ionotropic, NMDA 1/2A (Homo sapiens, UniProt Q12879+Q05586); test: Inhibition of recombinant GluN1/GluN2A receptor (unknown origin) expressed in HEK293 cells assessed as inhibition of glutamate-evoked current by whole-cell voltage-clamp method
[2] = biological target: Glutamate receptor ionotropic, NMDA 1/2B (Homo sapiens, UniProt Q05586+Q13224); test: Inhibition of recombinant GluN1/GluN2B receptor (unknown origin) expressed in HEK293 cells assessed as inhibition of glutamate-evoked current by whole-cell voltage-clamp method
[3] = biological target: Glutamate receptor ionotropic, NMDA 1/2C (Homo sapiens, UniProt Q05586+Q14957); test: Inhibition of recombinant GluN1/GluN2C receptor (unknown origin) expressed in HEK293 cells assessed as inhibition of glutamate-evoked current by whole-cell voltage-clamp method
[4] = biological target: Glutamate receptor ionotropic, NMDA 1/2D (Homo sapiens, UniProt Q05586+O15399); test: Inhibition of recombinant GluN1/GluN2D receptor (unknown origin) expressed in HEK293 cells assessed as inhibition of glutamate-evoked current by whole-cell voltage-clamp method
Sequence of Glutamate receptor ionotropic, NMDA 1/2D (O15399 whole entry, other chains not shown): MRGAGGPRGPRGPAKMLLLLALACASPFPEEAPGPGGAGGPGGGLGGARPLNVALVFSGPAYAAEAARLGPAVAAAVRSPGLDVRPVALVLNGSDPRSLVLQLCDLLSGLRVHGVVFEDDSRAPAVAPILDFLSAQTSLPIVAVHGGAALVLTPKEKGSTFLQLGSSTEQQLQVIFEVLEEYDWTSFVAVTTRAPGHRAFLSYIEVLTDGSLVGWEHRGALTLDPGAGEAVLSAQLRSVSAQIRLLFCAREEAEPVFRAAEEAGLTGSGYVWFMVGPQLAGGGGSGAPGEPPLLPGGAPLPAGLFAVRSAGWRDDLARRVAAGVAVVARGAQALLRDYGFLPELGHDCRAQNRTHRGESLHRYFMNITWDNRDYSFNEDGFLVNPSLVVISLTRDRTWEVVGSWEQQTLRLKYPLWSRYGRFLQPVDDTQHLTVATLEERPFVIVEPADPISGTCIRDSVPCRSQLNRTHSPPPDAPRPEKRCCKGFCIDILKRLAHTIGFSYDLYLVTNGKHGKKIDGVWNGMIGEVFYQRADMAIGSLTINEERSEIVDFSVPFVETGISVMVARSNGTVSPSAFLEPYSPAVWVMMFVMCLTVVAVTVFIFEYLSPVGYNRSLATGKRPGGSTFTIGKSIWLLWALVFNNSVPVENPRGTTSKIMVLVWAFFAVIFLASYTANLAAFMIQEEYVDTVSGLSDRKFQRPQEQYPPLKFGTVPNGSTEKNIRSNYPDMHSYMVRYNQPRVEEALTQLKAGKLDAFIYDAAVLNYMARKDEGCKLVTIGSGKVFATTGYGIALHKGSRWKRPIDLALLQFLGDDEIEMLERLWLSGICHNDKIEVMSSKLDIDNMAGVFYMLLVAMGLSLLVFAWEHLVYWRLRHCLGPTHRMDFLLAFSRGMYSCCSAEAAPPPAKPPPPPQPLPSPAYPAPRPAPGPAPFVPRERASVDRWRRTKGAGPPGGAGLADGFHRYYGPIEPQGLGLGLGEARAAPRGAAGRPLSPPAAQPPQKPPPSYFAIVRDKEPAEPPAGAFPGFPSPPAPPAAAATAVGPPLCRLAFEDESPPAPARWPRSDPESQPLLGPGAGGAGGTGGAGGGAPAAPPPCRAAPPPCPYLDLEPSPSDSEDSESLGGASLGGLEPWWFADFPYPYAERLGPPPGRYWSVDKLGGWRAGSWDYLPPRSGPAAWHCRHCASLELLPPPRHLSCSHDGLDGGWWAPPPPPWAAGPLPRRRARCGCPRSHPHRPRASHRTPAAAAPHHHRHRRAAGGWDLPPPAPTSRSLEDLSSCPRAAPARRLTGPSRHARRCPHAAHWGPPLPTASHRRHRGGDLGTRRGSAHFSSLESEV

Sequence of Glutamate receptor ionotropic, NMDA 1/2C (Q14957 whole entry, other chains not shown): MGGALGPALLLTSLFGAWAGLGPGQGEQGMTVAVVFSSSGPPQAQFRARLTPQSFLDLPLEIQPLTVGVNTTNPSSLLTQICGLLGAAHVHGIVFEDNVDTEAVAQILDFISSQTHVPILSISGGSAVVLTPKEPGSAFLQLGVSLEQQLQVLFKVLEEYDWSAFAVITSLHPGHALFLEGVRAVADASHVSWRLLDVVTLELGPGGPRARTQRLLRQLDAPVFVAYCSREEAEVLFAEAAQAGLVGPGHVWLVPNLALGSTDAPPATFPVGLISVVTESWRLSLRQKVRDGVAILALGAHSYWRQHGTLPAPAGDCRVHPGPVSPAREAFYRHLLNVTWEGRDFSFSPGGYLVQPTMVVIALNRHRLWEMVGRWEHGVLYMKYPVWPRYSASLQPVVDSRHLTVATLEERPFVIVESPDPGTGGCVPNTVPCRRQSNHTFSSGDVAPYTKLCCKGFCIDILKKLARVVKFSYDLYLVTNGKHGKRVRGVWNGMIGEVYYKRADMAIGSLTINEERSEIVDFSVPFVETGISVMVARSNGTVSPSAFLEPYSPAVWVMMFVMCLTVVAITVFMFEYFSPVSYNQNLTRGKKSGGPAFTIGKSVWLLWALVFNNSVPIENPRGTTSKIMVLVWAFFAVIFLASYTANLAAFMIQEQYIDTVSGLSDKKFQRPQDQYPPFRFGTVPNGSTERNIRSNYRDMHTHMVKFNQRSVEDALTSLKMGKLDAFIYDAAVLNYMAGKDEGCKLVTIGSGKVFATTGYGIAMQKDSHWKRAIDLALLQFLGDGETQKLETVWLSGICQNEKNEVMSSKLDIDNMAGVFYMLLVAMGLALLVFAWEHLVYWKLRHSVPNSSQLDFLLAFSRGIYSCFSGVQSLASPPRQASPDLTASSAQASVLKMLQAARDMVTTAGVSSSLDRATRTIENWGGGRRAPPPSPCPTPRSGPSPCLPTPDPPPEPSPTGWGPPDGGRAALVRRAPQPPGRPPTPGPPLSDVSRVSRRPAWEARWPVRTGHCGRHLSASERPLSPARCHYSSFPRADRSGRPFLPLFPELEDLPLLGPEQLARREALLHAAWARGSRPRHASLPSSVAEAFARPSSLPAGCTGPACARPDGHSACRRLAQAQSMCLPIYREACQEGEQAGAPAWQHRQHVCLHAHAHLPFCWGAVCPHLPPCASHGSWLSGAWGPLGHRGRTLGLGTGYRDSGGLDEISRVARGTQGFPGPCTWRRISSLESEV
Sequence of Glutamate receptor ionotropic, NMDA 1/2A (Q12879 whole entry, other chains not shown): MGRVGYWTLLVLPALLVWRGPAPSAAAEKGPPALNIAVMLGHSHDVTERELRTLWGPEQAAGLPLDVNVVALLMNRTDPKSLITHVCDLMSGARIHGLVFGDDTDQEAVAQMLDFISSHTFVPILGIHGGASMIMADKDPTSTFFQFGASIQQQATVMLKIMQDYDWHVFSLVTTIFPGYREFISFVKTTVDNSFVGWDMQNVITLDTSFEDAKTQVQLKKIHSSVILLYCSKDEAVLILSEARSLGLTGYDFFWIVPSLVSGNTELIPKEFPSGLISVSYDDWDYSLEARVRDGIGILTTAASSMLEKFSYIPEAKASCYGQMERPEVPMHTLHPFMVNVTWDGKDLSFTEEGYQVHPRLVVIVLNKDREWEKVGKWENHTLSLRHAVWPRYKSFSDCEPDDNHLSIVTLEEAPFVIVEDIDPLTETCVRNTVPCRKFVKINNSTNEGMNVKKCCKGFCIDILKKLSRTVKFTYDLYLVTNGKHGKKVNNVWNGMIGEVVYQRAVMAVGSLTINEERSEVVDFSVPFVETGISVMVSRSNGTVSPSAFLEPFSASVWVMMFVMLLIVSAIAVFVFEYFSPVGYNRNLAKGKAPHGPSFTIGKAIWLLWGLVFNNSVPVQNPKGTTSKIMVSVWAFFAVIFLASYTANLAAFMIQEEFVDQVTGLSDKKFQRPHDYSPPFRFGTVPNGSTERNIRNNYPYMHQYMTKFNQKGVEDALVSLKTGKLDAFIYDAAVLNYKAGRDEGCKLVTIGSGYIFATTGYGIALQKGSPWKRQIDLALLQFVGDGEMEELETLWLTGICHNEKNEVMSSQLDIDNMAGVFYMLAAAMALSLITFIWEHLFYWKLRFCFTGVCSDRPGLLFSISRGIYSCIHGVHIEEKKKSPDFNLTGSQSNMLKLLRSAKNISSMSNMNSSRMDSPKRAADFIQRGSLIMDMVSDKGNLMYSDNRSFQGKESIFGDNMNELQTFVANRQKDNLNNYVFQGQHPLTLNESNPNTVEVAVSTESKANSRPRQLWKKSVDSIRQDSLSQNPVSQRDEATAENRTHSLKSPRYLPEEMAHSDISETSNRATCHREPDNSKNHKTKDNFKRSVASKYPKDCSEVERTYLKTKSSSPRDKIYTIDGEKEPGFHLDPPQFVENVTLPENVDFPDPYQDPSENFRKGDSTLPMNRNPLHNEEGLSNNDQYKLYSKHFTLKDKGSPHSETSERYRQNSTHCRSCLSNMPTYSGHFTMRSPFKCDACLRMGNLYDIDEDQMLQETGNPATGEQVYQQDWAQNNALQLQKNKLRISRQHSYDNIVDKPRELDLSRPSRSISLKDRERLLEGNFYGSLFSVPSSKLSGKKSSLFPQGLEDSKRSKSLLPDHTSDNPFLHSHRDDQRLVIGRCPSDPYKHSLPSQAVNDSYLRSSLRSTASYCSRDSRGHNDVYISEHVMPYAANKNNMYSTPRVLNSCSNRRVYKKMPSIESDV

IC50 [1]: 600 nM
IC50 [2]: 600 nM
IC50 [3]: 400 nM
IC50 [4]: 500 nM
SMILES: C[C@H]1CC[C@H]2[C@@H]3CC[C@@H]4C[C@H](OS(=O)(=O)O)CC[C@]4(C)[C@H]3CC[C@]12C
